Laboratory results taken from patent publication US20060079453A1, “Hla binding peptides and their uses” (priority 2002, published 2006).
Like-named read-outs stand apart in the source and are kept apart here. No end group written: not given here.

Legend:
Test in all cases: biochemical
Type in all cases: binding
HLA-DR DRB1*0401 (DR4) = HLA-DR DRB1*0401 (DR4) (Homo sapiens, UniProt P01903+P01911, A100K/A169T/F76Y/I96L/K127E/L162R/M171V/N62H/P40V/Q125Y/R42H/S133A/S149N/S66Y/V115G/V209L/W38E)
HLA-DR DRB1*1302 (DR13) = HLA-DR DRB1*1302 (DR13) (Homo sapiens, UniProt P01903+P01911, A100E/A169T/K41T/L162R/M171V/P40S/Q125H/Q178H/Q39Y/Q99D/R42S/S66N/T262R/V115G/W38E/Y61H)
HLA-DR DRB1*1302 (DR13), sequence (P01903 26-254 limits assumed, other chains not shown): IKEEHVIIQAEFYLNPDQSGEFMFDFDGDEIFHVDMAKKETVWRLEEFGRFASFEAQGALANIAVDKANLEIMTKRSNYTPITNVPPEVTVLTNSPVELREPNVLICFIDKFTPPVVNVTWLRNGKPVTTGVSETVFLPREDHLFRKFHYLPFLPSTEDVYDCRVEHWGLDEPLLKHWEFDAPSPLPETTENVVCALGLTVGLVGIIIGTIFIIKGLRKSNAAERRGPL

HLA-DR DRB1*1501 (DR15) = HLA-DR DRB1*1501 (DR15) (Homo sapiens, UniProt P01903+P01911)
HLA-DR DRB1*0101 (DR1) = HLA-DR DRB1*0101 (DR1) (Homo sapiens, UniProt P01903+P01911, A100R/D57E/F55L/F60I/F76Y/I96L/L162R/M171V/P40L/Q125E/R42F/V115G/Y59C)
HLA-DR DRB5*0101 (DR51) = HLA-DR DRB5*0101 (DR51) (Homo sapiens, UniProt P01903+Q30154)
HLA-DR DRB4*0101 (DR53) = HLA-DR DRB4*0101 (DR53) (Homo sapiens, UniProt P01903+P13762, G164S)
HLA-DR DRB1*0701 (DR7) = HLA-DR DRB1*0701 (DR7) (Homo sapiens, UniProt P01903+P01911, A100R/A102G/A103Q/D57E/D86V/E43K/F76Y/K127E/L162R/M171V/P40G/Q125H/Q99D/R33Q/R42Y/R54Q/S133A/S66F/T210M/V115G/Y107V/Y59L/Y89S); details: DRB1 *0701

Substance: (43)AAIGGIFIFKKDA
- IC50 (HLA-DR DRB1*0401 (DR4); read-out: DRB1 *0401): 800 nM

Substance: PAYEKLSAEQSPPPY
- IC50 (HLA-DR DRB1*0401 (DR4); DRB1 *0401): 479 nM

Substance: MIMIKFMGVIYIMII [MJMIKFMGVIYIMII]
- IC50 (HLA-DR DRB1*1302 (DR13); DRBI *1302): 102 nM
- IC50 (HLA-DR DRB1*1501 (DR15); DRBI *1501): 23600 nM

Substance: (52)AAAATKAAAA
- IC50 (HLA-DR DRB1*0101 (DR1); read-out: DRB1 *0101): 2000 nM

Substance: YSFFPSI [YSFFPSI]
- IC50 (HLA-DR DRB1*0101 (DR1); DRB1 *0101): ≥ 50000 nM

Substance: VYDFVFADLRGVYRD
- IC50 (HLA-DR DRB1*1302 (DR13); read-out: DRBI *1302): 79 nM
- IC50 (HLA-DR DRB1*1501 (DR15); read-out: DRBI *1501): 855 nM
- IC50 (HLA-DR DRB5*0101 (DR51); read-out: DRB5 *0101): > 51000 nM

Substance: HFNMLKNKMQSSFFM
- IC50 (HLA-DR DRB1*0101 (DR1); DRB1 *0101): 12 nM
- IC50 (HLA-DR DRB4*0101 (DR53); DRB4 *0101): 934 nM
- IC50 (HLA-DR DRB1*0701 (DR7)): 3230 nM
- IC50 (HLA-DR DRB1*0401 (DR4); DRB1 *0401): 18 nM
- IC50 (HLA-DR DRB1*1501 (DR15); DRBI *1501): 616 nM
- IC50 (HLA-DR DRB5*0101 (DR51); DRB5 *0101): 60 nM

Substance: NPVVHFFKNIVT
- IC50 (HLA-DR DRB1*1501 (DR15); DRBI *1501): 23 nM
- IC50 (HLA-DR DRB5*0101 (DR51); DRB5 *0101): 10000 nM

Substance: EGDAFELTVSC
- IC50 (HLA-DR DRB1*0401 (DR4); read-out: DRB1 *0401): 572 nM

Substance: (43)AAIGFFFFKKGIA
- IC50 (HLA-DR DRB1*0401 (DR4); read-out: DRB1 *0401): 258 nM

Substance: AFLRAAAAAAFAA
- IC50 (HLA-DR DRB1*0101 (DR1); DRB1 *0101): ≥ 50000 nM
- IC50 (HLA-DR DRB1*0401 (DR4); DRB1 *0401): 400 nM

Substance: IRNLALQTLPAM
- IC50 (HLA-DR DRB4*0101 (DR53); DRB4 *0101): 2 nM

Substance: AFAAAKTAA(72)
- IC50 (HLA-DR DRB1*0101 (DR1); read-out: DRB1 *0101): 5000 nM

Substance: P(X)KQNTLKLAT
- IC50 (HLA-DR DRB1*0101 (DR1); read-out: DRB1 *0101): 1.7 nM

Substance: AADDDDDDDDDDA
- IC50 (HLA-DR DRB1*0101 (DR1); DRB1 *0101): ≥ 50000 nM

Substance: VGIRTPVLTSLFNKV
- IC50 (HLA-DR DRB4*0101 (DR53); read-out: DRB4 *0101): 97 nM
- IC50 (HLA-DR DRB5*0101 (DR51); read-out: DRB5 *0101): 80 nM

Substance: ENPVVHFFANIVTPR
- IC50 (HLA-DR DRB1*1501 (DR15); DRBI *1501): 2.9 nM
- IC50 (HLA-DR DRB5*0101 (DR51); DRB5 *0101): 6240 nM

Substance: AAFIFIGGGKIKA
- IC50 (HLA-DR DRB1*0101 (DR1); DRB1 *0101): ≥ 50000 nM
- IC50 (HLA-DR DRB1*0401 (DR4); DRB1 *0401): 195 nM

Substance: (46)AAKTAAAFA
- IC50 (HLA-DR DRB1*0101 (DR1); read-out: DRB1 *0101): 5000 nM

Substance: LGQQQPFPPQ
- IC50 (HLA-DR DRB4*0101 (DR53); DRB4 *0101): 151 nM

Substance: ENPVVAFFKNIVTPR
- IC50 (HLA-DR DRB1*1501 (DR15); DRBI *1501): 2.8 nM
- IC50 (HLA-DR DRB5*0101 (DR51); DRB5 *0101): 302 nM

Substance: LEDLLMGTLGIVCPI
- IC50 (HLA-DR DRB4*0101 (DR53); read-out: DRB4 *0101): 1800 nM
- IC50 (HLA-DR DRB1*1302 (DR13); read-out: DRBI *1302): 1690 nM
- IC50 (HLA-DR DRB5*0101 (DR51); read-out: DRB5 *0101): 9480 nM

Substance: AAAKAAAAAAAFA
- IC50 (HLA-DR DRB1*0101 (DR1); DRB1 *0101): ≥ 50000 nM

Substance: PQPFRPQQPYPQ
- IC50 (HLA-DR DRB4*0101 (DR53); DRB4 *0101): 15 nM

Substance: ACAAAKATAAAA(10)AA
- IC50 (HLA-DR DRB1*0101 (DR1); read-out: DRB1 *0101): 5000 nM
